The record followed here is US9617271B2, “Triazolo compounds” (Hoffmann-La Roche Inc., priority 2012, dated 2017).

This assay deals with human PDE10A (Homo sapiens (Human), UniProt Q9Y233). Kind of assay: human PDE10A full length assay ([3H]-cGMP SPA). Particulars: human PDE10A full length enzyme, 50 nM cGMP + 50 nM [3H]-cGMP, 20 minutes at room temperature; read-out: PDE10A inhibition IC50. It counts as biochemical. As for the experimental part: The human PDE10A full length assay was performed in 96-well micro titer plates. The reaction mixture of 50 μl contained 20 mM HEPES pH=7.5/10 mM MgCl2/0.05 mg/ml BSA (Sigma cat. #A-7906), 50 nM cGMP (Sigma, cat. #G6129) and 50 nM [3H]-cGMP (GE Healthcare, cat. #TRK392 S.A. 13.2 Ci/mmol), 3.75 ng/well PDE10A enzyme (Enzo Life Science, Lausen, Switzerland cat #SE-534) with or without a specific test compound. A range of concentrations of the potential inhibitor was used to generate data for calculating the concentration of inhibitor resulting in 50% of the effect (e.g. IC50, the concentration of the competitor inhibiting PDE10A activity by 50%). Non-specific activity was tested without the enzyme. The reaction was initiated by the addition of the substrate solution (cGMP and [3H]-cGMP) and allowed to progress for 20 minutes at room temperature. The reaction was terminated by adding 25 μl of YSi-SPA scintillation beads (GE Healthcare, cat. #RPNQ0150) in 18 mM zinc sulphate solution (stop reagent). After 1 h under shaking, the plate was centrifuged one minute at 170 g to allow beads to settle. Afterwards, radioactive counts were measured on a Perkin Elmer TopCount Scintillation plate reader.
Sequence of human PDE10A (Q9Y233 other isoform, or with tags, fused parts or gaps): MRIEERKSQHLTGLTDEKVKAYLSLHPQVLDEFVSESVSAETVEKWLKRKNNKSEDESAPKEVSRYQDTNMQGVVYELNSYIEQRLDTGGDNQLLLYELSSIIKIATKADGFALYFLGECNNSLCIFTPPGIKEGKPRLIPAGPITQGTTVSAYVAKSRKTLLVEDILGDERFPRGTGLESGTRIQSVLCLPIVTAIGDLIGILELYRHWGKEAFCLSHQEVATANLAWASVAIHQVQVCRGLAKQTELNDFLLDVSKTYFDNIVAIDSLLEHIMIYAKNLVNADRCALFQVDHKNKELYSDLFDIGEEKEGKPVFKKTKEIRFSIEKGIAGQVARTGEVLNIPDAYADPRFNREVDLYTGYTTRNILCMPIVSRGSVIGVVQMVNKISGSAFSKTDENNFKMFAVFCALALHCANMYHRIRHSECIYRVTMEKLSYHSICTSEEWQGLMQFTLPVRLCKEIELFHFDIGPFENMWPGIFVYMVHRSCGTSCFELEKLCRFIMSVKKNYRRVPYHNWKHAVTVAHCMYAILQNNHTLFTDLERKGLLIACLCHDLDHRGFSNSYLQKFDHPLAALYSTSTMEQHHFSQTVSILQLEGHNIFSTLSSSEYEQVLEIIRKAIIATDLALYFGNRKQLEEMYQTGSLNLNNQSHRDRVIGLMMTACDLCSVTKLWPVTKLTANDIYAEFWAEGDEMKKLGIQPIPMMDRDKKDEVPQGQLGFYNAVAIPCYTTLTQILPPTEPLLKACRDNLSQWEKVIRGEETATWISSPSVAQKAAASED

By IC50 is commonly meant the concentration needed to halve the response being measured. In the case of `COc1cc(CCc2nc(N3CCCC3)nn2C)nn2c(C)c(C)nc12` [Example 12, 8-Methoxy-2,3-dimethyl-6-(2-(1-methyl-3-(pyrrolidin-1-yl)-1H-1,2,4-triazol-5-yl)ethyl)imidazo[1,2-b]pyridazine], the IC50 came out at 3 nM. As for `Cn1nc(N2CCCC2)nc1C#Cc1ccc2nc(Cl)cn2n1` [Example 36, 2-Chloro-6-((1-methyl-3-(pyrrolidin-1-yl)-1H-1,2,4-triazol-5-yl)ethynyl)imidazo[1,2-b]pyridazine], the IC50 was determined as 56 nM. As for “N-Ethyl-N,6,7-trimethyl-2-(2-(1-methyl-3-(pyrrolidin-1-yl)-1H-1,2,4-triazol-5-yl)ethyl)imidazo[1,2-f][1,2,4]triazin-4-amine [Example 34]”, the half-inhibitory concentration (IC50) came out at 5 nM. With `Cc1nc2c(OC(C)C)cc(CCc3nc(N4CCCC4)nn3C)nn2c1C` [Example 27, 8-Isopropoxy-2,3-dimethyl-6-(2-(1-methyl-3-(pyrrolidin-1-yl)-1H-1,2,4-triazol-5-yl)ethyl)imidazo[1,2-b]pyridazine] the figure was 3 nM; with `Cc1nc2c(C)cc(CCc3nc(N4CCCC4)nn3C)nn2c1C` [Example 16, 2,3,8-trimethyl-6-(2-(1-methyl-3-(pyrrolidin-1-yl)-1H-1,2,4-triazol-5-yl)ethyl)-imidazo[1,2-b]pyridazine], 2 nM; with `Cc1nnc2ccc(C#Cc3nc(N4CCCC4)nn3C)nn12` [Example 56, 3-Methyl-6-((1-methyl-3-(pyrrolidin-1-yl)-1H-1,2,4-triazol-5-yl)ethynyl)[1,2,4]triazolo-[4,3-b]pyridazine], 38.2 nM. The value for `Cc1nc2c(OC(C)C)cc(C#Cc3nc(N4CCCC4)nn3C)nn2c1C` [Example 25, 8-Isopropoxy-2,3-dimethyl-6-((1-methyl-3-(pyrrolidin-1-yl)-1H-1,2,4-triazol-5-yl)ethynyl)imidazo[1,2-b]pyridazine] was 1 nM; that for `CNC(=O)c1cc(C#Cc2nc(N3CCCC3)nn2C)nn2c(C)c(C(F)(F)F)nc12` [Example 69, N,3-Dimethyl-6-((1-methyl-3-(pyrrolidin-1-yl)-1H-1,2,4-triazol-5-yl)ethynyl)-2-(trifluoromethyl)imidazo[1,2-b]pyridazine-8-carboxamide] was 2.1 nM.
